# Laboratory results published in patent publication US12195427B2, “MASP-2 inhibitors and methods of use” (priority 2018, dated 2025).
# Structures can show the parent of a compound that is named as a salt.
# Target: MASP-2 CCP2-SP (Homo sapiens (Human), UniProt O00187)
# Assay: MASP-2 co-crystallization, X-ray crystallography and structure analysis (H-bonds, van der Waals contacts);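 as to Ligand-pharmacophore element distance, pharmacophore element C2: distance from averaged pharmacophore element to bound ligand; missing value means element absent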;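 as to Ligand-pharmacophore element distance, pharmacophore element C3: distance from averaged pharmacophore element to bound ligand; missing value means element absent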;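 as to Ligand-pharmacophore element distance, pharmacophore element C4: distance from averaged pharmacophore element to bound ligand; missing value means element absent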;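 as to Ligand-pharmacophore element distance, pharmacophore element C5: distance from averaged pharmacophore element to bound ligand; missing value means element absent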
# Set-up: van der Waals contact distance, MASP-2 HIS 483 atom CD2 / van der Waals contact distance, MASP-2 HIS 483 atom NE2 / van der Waals contact distance, SER 654 C to compound atom / van der Waals contact distance, SER 654 O to compound atom / van der Waals contact distance, TRP 655 C to compound atom / van der Waals contact distance, MASP-2 GLY 528 atom CA / van der Waals contact distance TRP 655 atom CZ3 / van der Waals contact distance TRP 655 atom N / van der Waals contact distance TRP 655 atom CE3 / van der Waals contact distance GLY 656 atom C / van der Waals contact distance GLY 656 atom CA / van der Waals contact distance GLY 656 atom O / van der Waals contact distance, MASP-2 TYR 607 atom CD1 / van der Waals contact distance, MASP-2 PRO 606 atom O / d(C3,CA1) / d(CA1,N1)2 / d(H4,O1) / d(H4,O2) / d(O1,O2) / d(CA1,O2) / d(CA6,O1) / d(CA6,O2) / d(CA1,C5) / d(O2,H3) / d(N2,C2) / d(CA5,N2) / d(N2,C4) / d(N2,C6) / d(N2,CA3) / d(N2,O3) / d(O4,H2): unit not given beside the values
# Details: for Ligand-pharmacophore element distance, pharmacophore element C2 / Ligand-pharmacophore element distance, pharmacophore element C3 / Ligand-pharmacophore element distance, pharmacophore element C4 / Ligand-pharmacophore element distance, pharmacophore element C5 / Ligand-pharmacophore element distance, pharmacophore element C6 / Ligand-pharmacophore element distance, pharmacophore element C7 / Ligand-pharmacophore element distance, pharmacophore element CA1 / Ligand-pharmacophore element distance, pharmacophore element CA2 / Ligand-pharmacophore element distance, pharmacophore element CA3 / Ligand-pharmacophore element distance, pharmacophore element CA4 / Ligand-pharmacophore element distance, pharmacophore element CA5 / Ligand-pharmacophore element distance, pharmacophore element CA6: Table A4-1
# Excerpt: This example illustrates the preparation of recombinant MASP-2 protein, based on UniProt O00187, human mannan-binding lectin serine protease 2. Expression constructs for human MASP-2 CCP2-SP and CCP2-SP-6HIS were generated for recombinant expression in E. coli cells.
# Typically, crystallization hits were obtained by screening against […] 96-well crystallization reagent kits (GRAS6, GRAS2, Hampton Research; MORPHEUS, Molecular Dimensions; Wizard 1&2 Cryo, Rigaku Reagents) and crystal growth was inspected by optical microscopy. Crystals were used directly or further optimized for X-ray diffraction. Crystals were captured with cryogenic loops and dipped into liquid nitrogen directly or cryoprotected with a 20% glycerol in crystallization formulation before flash-cooling in liquid nitrogen.
# Thereafter crystals are transferred once or twice for soaking within the crystallization solution containing the MASP-2 inhibitor.
# Crystals were diffracted with synchrotron X-rays of […] and X-ray diffraction datasets were collected at beamlines SSRL BL9-2, BL14-1, BL12-2 as well as ALS sector 5 using Dectris Pilatus and Eiger detectors. Structures were determined by molecular replacement using portions of the structure 1Q3X as search models and partially refined with Buster 2.10.2 or Refmac 5.8. […] When multiple ligand poses were observed, for instance arising from multiple molecules in the asymmetric unit or refined dual poses within the same molecule, only one pose was selected and analyzed.
# LigPlot+ calls these ‘nonbonded contacts’ or ‘hydrophobic contacts’. Despite the name, there are atom pairings that include possible H-bonds. Thus, in some instances, the Table A2 also contains H-bond interactions.
# [1] = Table A5-1 pharmacophore: distance between elements, S2/S1 region
# [2] = Table A5-2 pharmacophore distance, S3/S4 region
# [3] = Table A7-1, between pharmacophore elements of the bound compound
# [4] = Table A7-2, between pharmacophore elements of the bound compound
# MASP-2 CCP2-SP, sequence (O00187 445-686): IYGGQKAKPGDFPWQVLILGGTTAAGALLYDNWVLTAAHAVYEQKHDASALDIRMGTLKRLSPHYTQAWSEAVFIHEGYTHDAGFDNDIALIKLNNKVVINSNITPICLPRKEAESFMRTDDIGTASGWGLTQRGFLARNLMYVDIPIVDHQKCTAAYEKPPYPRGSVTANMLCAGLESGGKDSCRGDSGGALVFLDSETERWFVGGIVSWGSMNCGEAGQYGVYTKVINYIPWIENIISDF
# MASP-2 CCP2-SP, sequence (O00187 364-432 partner): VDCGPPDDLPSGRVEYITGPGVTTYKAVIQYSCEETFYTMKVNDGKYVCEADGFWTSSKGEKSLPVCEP
smiles,measurement,setting,value
"Cc1nc(N)ccc1CNC(=O)[C@H](C)NC(=O)[C@H]1C[C@@H](c2ccccc2)CCN1 [compound 1253, (2R,4S)—N—((S)-1-(((6-Amino-2-methylpyridin-3-yl)methyl)amino)-1-oxopropan-2-yl)-4-phenylpiperidine-2-carboxamide Dihydrochloride]",H-bond distance to MASP-2 ASP 627 atom OD2,"Table A1 (H-Bonds), ASP 627 OD2",3.33
same,H-bond distance to MASP-2 GLY 656 atom N,"Table A1 (H-Bonds), GLY 656 N",3.23
same,H-bond distance to MASP-2 GLY 656 atom O,"Table A1 (H-Bonds), GLY 656 O",2.83
same,H-bond distance to MASP-2 SER 628 atom O,"Table A1 (H-Bonds), SER 628 O",3.12
same,H-bond distance to MASP-2 SER 654 atom O,"Table A1 (H-Bonds), SER 654 O",2.99
same,H-bond distance to MASP-2 SER 657 atom O,"Table A1 (H-Bonds), SER 657 O",2.85
same,"van der Waals contact distance, MASP-2 HIS 483 atom CD2",Table A2-1,3.74
same,"van der Waals contact distance, MASP-2 HIS 483 atom NE2",Table A2-1,3.66
same,"van der Waals contact distance, MASP-2 PHE 529 atom CE2",Table A2-3,3.77
same,"van der Waals contact distance, MASP-2 amino acid atom to compound atom","Table A2-5: TYR 607 (CE1, CE2, OH), PRO 608 (CD, CG), SER 611 (CA)",3.73
same,"van der Waals contact distance, MASP-2 amino acid atom to compound atom","Table A2-7: SER 628 (CB, O, OG)",3.58
same,"van der Waals contact distance, VAL 653 CG1 to compound atom",Table A2-11,3.31
same,"van der Waals contact distance, TRP 655 CA to compound atom",Table A2-12,3.41
same,van der Waals contact distance TRP 655 atom CE3,"Table A2-13, MASP-2 TRP 655 CE3, compound atom in line below",3.61
same,van der Waals contact distance TRP 655 atom CZ3,"Table A2-13, MASP-2 TRP 655 CZ3",3.71
same,"Ligand-pharmacophore element distance, pharmacophore element C2",,0.28
same,"Ligand-pharmacophore element distance, pharmacophore element C3",,0.07
same,"Ligand-pharmacophore element distance, pharmacophore element C4",,0
same,"Ligand-pharmacophore element distance, pharmacophore element C5",,0
same,"Ligand-pharmacophore element distance, pharmacophore element C6",,0
same,"Ligand-pharmacophore element distance, pharmacophore element C7",,0
same,"Ligand-pharmacophore element distance, pharmacophore element CA1",,0.59
same,"Ligand-pharmacophore element distance, pharmacophore element CA2",,0.23
same,"Ligand-pharmacophore element distance, pharmacophore element CA3",,0
same,"Ligand-pharmacophore element distance, pharmacophore element CA4",,0
same,"Ligand-pharmacophore element distance, pharmacophore element CA5",,0
same,"Ligand-pharmacophore element distance, pharmacophore element CA6",,0
same,"d(C3,CA1)",[1],2.87
same,"d(CA1,N1)2",[1],1.37
same,"d(CA1,O1)",[1],4.36
same,"d(CA1,O2)",[1],3.83
same,"d(H4,O1)",[1],4.38
same,"d(H4,O2)",[1],3.69
same,"d(O1,O2)",[1],3.39
same,"d(N2,C2)",[2],1.46
same,"d(N2,CA2)",[2],5.74
same,"d(O2,H3)",[2],2.04
same,"d(O2,N2)",[2],2.70
same,"a(C3, CA1, O1)",Table A6-1 pharmacophore angle,149.95
same,"a(CA1, O1, O2)",Table A6-1 pharmacophore angle,105.84
same,"a(O1, O2, H4)",Table A6-1 pharmacophore angle,131.28
same,"a(N1, CA1, O1) b)","Table A6-1 pharmacophore angle, Methyl-amino-pyridine compounds",174.19
same,"a(O1, O2, H3)",Table A6-2 pharmacophore angle,134.57
same,"a(O1, O2, N2)",Table A6-2 pharmacophore angle,140.99
same,"a(O2, N2, C2)",Table A6-2 pharmacophore angle,130.77
same,"a(O2, N2, CA2)",Table A6-2 pharmacophore angle,155.92
same,"Pharmacophore torsion angle a(C3, CA1, O1, H4)",[3],26.20
same,"Pharmacophore torsion angle a(H4, O1, O2, H3)",[3],115.64
same,"Pharmacophore torsion angle a(H4, O1, O2, N2)",[3],140.24
same,"Pharmacophore torsion angle a(N1, CA1, O1, H4)",[3],3.75
same,"Pharmacophore torsion angle a(O1, H4, O2, CA1)",[3],−82.09
same,"Pharmacophore torsion angle a(O1, O2, N2, C2)",[3],120.69
same,"Pharmacophore torsion angle a(O1, O2, N2, CA2)",[4],126.24
CC(=O)Nc1ccc(CCNC(CCc2ccccc2)C(=O)NC(C)C(=O)NCc2ccc(C(=N)N)cc2)cc1.Cl.Cl (stereo not shown) [1345_2],"Ligand-pharmacophore element distance, pharmacophore element C2",,0
same,"Ligand-pharmacophore element distance, pharmacophore element C3",,0
same,"Ligand-pharmacophore element distance, pharmacophore element C4",,0
same,"Ligand-pharmacophore element distance, pharmacophore element C5",,0
same,"Ligand-pharmacophore element distance, pharmacophore element C6",,0
same,"Ligand-pharmacophore element distance, pharmacophore element C7",,0
same,"Ligand-pharmacophore element distance, pharmacophore element CA1",,0.45
same,"Ligand-pharmacophore element distance, pharmacophore element CA2",,0.89
same,"Ligand-pharmacophore element distance, pharmacophore element CA3",,1.13
same,"Ligand-pharmacophore element distance, pharmacophore element CA4",,0
same,"Ligand-pharmacophore element distance, pharmacophore element CA5",,0
same,"Ligand-pharmacophore element distance, pharmacophore element CA6",,0
same,"d(CA1,O1)",[1],4.58
same,"d(CA1,O2)",[1],4.16
same,"d(H4,O1)",[1],4.97
same,"d(H4,O2)",[1],4.32
same,"d(O1,O2)",[1],3.32
same,"d(N2,CA2)",[2],5.98
same,"d(N2,CA3)",[2],5.15
same,"d(N2,O3)",[2],8.73
same,"d(O2,H3)",[2],5.51
same,"d(O2,N2)",[2],2.87
same,"a(CA1, O1, O2)",Table A6-1 pharmacophore angle,105.43
same,"a(O1, O2, H4)",Table A6-1 pharmacophore angle,138.87
same,"a(O1, O2, H3)",Table A6-2 pharmacophore angle,152.27
same,"a(O1, O2, N2)",Table A6-2 pharmacophore angle,142.63
same,"a(O2, N2, CA2)",Table A6-2 pharmacophore angle,153.90
same,"a(O2, N2, CA3)",Table A6-2 pharmacophore angle,151.66
same,"a(O2, N2, O3)",Table A6-2 pharmacophore angle,162.76
same,"Pharmacophore torsion angle a(H4, O1, O2, H3)",[3],49.59
same,"Pharmacophore torsion angle a(H4, O1, O2, N2)",[3],128.64
same,"Pharmacophore torsion angle a(O1, H4, O2, CA1)",[3],−68.67
same,"Pharmacophore torsion angle a(O1, O2, N2, CA2)",[4],129.85
same,"Pharmacophore torsion angle a(O1, O2, N2, CA3)",[4],−34.52
same,"Pharmacophore torsion angle a(O1, O2, N2, O3)",[4],−20.78
